# US20240360178A1, “MACROCYCLIC IMMUNOMODULATORS” (Bristol-Myers Squibb Company, priority 2021, published 2024)
# Positions of bridges follow the written chain, without caps; N, C: chain ends. Non-standard residues stand in square brackets, D forms with d. Residues, ends and D or L forms follow the SMILES beside them. ξ: configuration not given here. Bip = N[C@@H](Cc1ccc(-c2ccccc2)cc1)C(=O)O; Orn = NCCC[C@H](N)C(=O)O; Dab = NCC[C@H](N)C(=O)O; Dap = NC[C@H](N)C(=O)O; ξS = NC(CO)C(=O)O
# Biological target: T1, human PD-1 (Jurkat-PD-1 cells) / PE-labeled human PD-L1-Ig (Homo sapiens, UniProt Q15116)
# T1 construct: expressed in transfected cells; host or cells: Jurkat cell line over-expressing human PD-1
# Assay: Jurkat-PD-1 Cell Binding High-Content Screening Assay (CBA); Jurkat hPD1-PDL1 assay
# Details: Jurkat cell line over-expressing human PD-1; PE-labeled PD-L1-Ig 20 nM final; compound incubated 2 hours at 37° C.; read-out: Jurkat HPD1-PDL1 IC50
# How it was run: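 Binding of phycoerythrin-conjugated PD-L1-Ig (20 nM final) to PD-1-overexpressing Jurkat cells was read by high-content imaging. Cells in DMEM/10% FCS were exposed to compound for 2 hours at 37° C before labeled ligand was added.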
# T1 sequence (Q15116 25-288): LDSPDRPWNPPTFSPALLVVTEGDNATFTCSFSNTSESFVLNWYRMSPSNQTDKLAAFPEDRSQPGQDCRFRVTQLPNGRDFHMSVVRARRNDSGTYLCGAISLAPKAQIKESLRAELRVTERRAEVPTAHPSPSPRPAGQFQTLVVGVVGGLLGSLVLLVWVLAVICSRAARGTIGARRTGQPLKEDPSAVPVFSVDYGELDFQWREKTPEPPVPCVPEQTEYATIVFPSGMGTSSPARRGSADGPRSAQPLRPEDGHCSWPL
row,SMILES,IC50
1,CC(C)C[C@@H]1NC(=O)[C@H](Cc2c[nH]c3ccccc23)NC(=O)[C@H](CC(=O)O)NC(=O)[C@H](Cc2ccc(O)cc2)NC(=O)[C@H](Cc2ccccc2)NC(=O)CSC[C@@H](C(=O)N[C@@H](C)C(N)=O)NC(=O)[C@H]([C@@H](C)O)NC(=O)[C@H](C(C)C)NC(=O)[C@H](CC(C)C)NC(=O)[C@H](CCN)NC(=O)[C@H]2CCCN2C(=O)[C@H](CN)NC(=O)[C@H](C(C)C)NC(=O)[C@H](Cc2ccc(-c3ccccc3)cc2)NC1=O [Example 1409] ({CH2CO}-FYDWL[Bip]V[Dap][dP][Dab]LVTCA-NH2; thioether N-14),280 nM
2,CC(C)C[C@@H]1NC(=O)[C@H](Cc2c[nH]c3ccccc23)NC(=O)[C@H](CC(=O)O)NC(=O)[C@H](Cc2ccc(O)cc2)NC(=O)[C@H](Cc2ccccc2)NC(=O)CSC[C@@H](C(=O)NCC(N)=O)NC(=O)[C@H]([C@@H](C)O)NC(=O)[C@H](C(C)C)NC(=O)[C@H](CC(C)C)NC(=O)[C@H](CC(N)=O)NC(=O)[C@H]2CCCN2C(=O)[C@H](CCN)NC(=O)[C@H](C(C)C)NC(=O)[C@H](Cc2ccc(-c3ccccc3)cc2)NC1=O [Example 1411] ({CH2CO}-FYDWL[Bip]V[Dab][dP]NLVTCG-NH2; thioether N-14),440 nM
3,CC(C)C[C@@H]1NC(=O)[C@H](Cc2c[nH]c3ccccc23)NC(=O)[C@H](CC(=O)O)NC(=O)[C@H](Cc2ccc(O)cc2)NC(=O)[C@H](Cc2ccccc2)NC(=O)CSC[C@@H](C(=O)N[C@@H](C)C(N)=O)NC(=O)[C@H]([C@@H](C)O)NC(=O)[C@H](C(C)C)NC(=O)[C@H](CC(C)C)NC(=O)[C@H](CC(N)=O)NC(=O)[C@H]2CCCN2C(=O)[C@H](CCN)NC(=O)[C@H](C(C)C)NC(=O)[C@H](Cc2ccc(-c3ccccc3)cc2)NC1=O [Example 1412] ({CH2CO}-FYDWL[Bip]V[Dab][dP]NLVTCA-NH2; thioether N-14),480 nM
4,CC(C)C[C@@H]1NC(=O)[C@H](Cc2c[nH]c3ccccc23)NC(=O)[C@H](CC(=O)O)NC(=O)[C@H](Cc2ccc(O)cc2)NC(=O)[C@H](Cc2ccccc2)NC(=O)CSC[C@@H](C(=O)NCC(N)=O)NC(=O)[C@H]([C@@H](C)O)NC(=O)[C@H](C(C)C)NC(=O)[C@H](CC(C)C)NC(=O)[C@H](CCN)NC(=O)[C@H]2CCCN2C(=O)[C@H](CCN)NC(=O)[C@H](C(C)C)NC(=O)[C@H](Cc2ccc(-c3ccccc3)cc2)NC1=O [Example 1414] ({CH2CO}-FYDWL[Bip]V[Dab][dP][Dab]LVTCG-NH2; thioether N-14),320 nM
5,CC(C)C[C@@H]1NC(=O)[C@H](Cc2c[nH]c3ccccc23)NC(=O)[C@H](CC(=O)O)NC(=O)[C@H](Cc2ccc(O)cc2)NC(=O)[C@H](Cc2ccccc2)NC(=O)CSC[C@@H](C(=O)N[C@@H](C)C(N)=O)NC(=O)[C@H]([C@@H](C)O)NC(=O)[C@H](C(C)C)NC(=O)[C@H](CC(C)C)NC(=O)[C@H](CCN)NC(=O)[C@H]2CCCN2C(=O)[C@H](CCN)NC(=O)[C@H](C(C)C)NC(=O)[C@H](Cc2ccc(-c3ccccc3)cc2)NC1=O [Example 1416] ({CH2CO}-FYDWL[Bip]V[Dab][dP][Dab]LVTCA-NH2; thioether N-14),240 nM
6,CC(C)C[C@@H]1NC(=O)[C@H](Cc2c[nH]c3ccccc23)NC(=O)[C@H](CC(=O)O)NC(=O)[C@H](Cc2ccc(O)cc2)NC(=O)[C@H](Cc2ccccc2)NC(=O)CSC[C@@H](C(=O)N[C@@H](C)C(N)=O)NC(=O)[C@H]([C@@H](C)O)NC(=O)[C@H](C(C)C)NC(=O)[C@H](CC(C)C)NC(=O)[C@H](CC(N)=O)NC(=O)[C@H]2CCCN2C(=O)[C@H](CCCN)NC(=O)[C@H](C(C)C)NC(=O)[C@H](Cc2ccc(-c3ccccc3)cc2)NC1=O [Example 1418] ({CH2CO}-FYDWL[Bip]V[Orn][dP]NLVTCA-NH2; thioether N-14),210 nM
7,CC(C)C[C@@H]1NC(=O)[C@H](Cc2c[nH]c3ccccc23)NC(=O)[C@H](CC(=O)O)NC(=O)[C@H](Cc2ccc(O)cc2)NC(=O)[C@H](CC(N)=O)NC(=O)CSC[C@@H](C(=O)NCC(N)=O)NC(=O)[C@H]([C@@H](C)O)NC(=O)[C@H](C(C)C)NC(=O)[C@H](CC(C)C)NC(=O)[C@H](CC(N)=O)NC(=O)[C@H]2CCCN2C(=O)[C@H](CCCN)NC(=O)[C@H](C(C)C)NC(=O)[C@H](Cc2ccc(-c3ccccc3)cc2)NC1=O [Example 1424] ({CH2CO}-NYDWL[Bip]V[Orn][dP]NLVTCG-NH2; thioether N-14),660 nM

# Stronger by IC50, values ahead:
row,IC50,SMILES
1,140 nM,CC(C)C[C@@H]1NC(=O)[C@H](Cc2c[nH]c3ccccc23)NC(=O)[C@H](CC(=O)O)NC(=O)[C@H](Cc2ccc(O)cc2)NC(=O)[C@H](Cc2ccccc2)NC(=O)CSC[C@@H](C(=O)NCC(N)=O)NC(=O)[C@H](CO)NC(=O)[C@H](C(C)C)NC(=O)[C@H](CC(C)C)NC(=O)[C@H](CCN)NC(=O)[C@H]2CCCN2C(=O)[C@H](CN)NC(=O)[C@H](C(C)C)NC(=O)[C@H](Cc2ccc(-c3ccccc3)cc2)NC1=O [Example 1410] ({CH2CO}-FYDWL[Bip]V[Dap][dP][Dab]LVSCG-NH2; thioether N-14)
2,90 nM,CC(C)C[C@@H]1NC(=O)[C@H](Cc2c[nH]c3ccccc23)NC(=O)[C@H](CC(=O)O)NC(=O)[C@H](Cc2ccc(O)cc2)NC(=O)[C@H](Cc2ccccc2)NC(=O)CSC[C@@H](C(=O)NCC(N)=O)NC(=O)[C@H](CO)NC(=O)[C@H](C(C)C)NC(=O)[C@H](CC(C)C)NC(=O)[C@H](CC(N)=O)NC(=O)[C@H]2CCCN2C(=O)[C@H](CCN)NC(=O)[C@H](C(C)C)NC(=O)[C@H](Cc2ccc(-c3ccccc3)cc2)NC1=O [Example 1413] ({CH2CO}-FYDWL[Bip]V[Dab][dP]NLVSCG-NH2; thioether N-14)
3,80 nM,CC(C)C[C@@H]1NC(=O)[C@H](Cc2c[nH]c3ccccc23)NC(=O)[C@H](CC(=O)O)NC(=O)[C@H](Cc2ccc(O)cc2)NC(=O)[C@H](Cc2ccccc2)NC(=O)CSC[C@@H](C(=O)N[C@@H](C)C(N)=O)NC(=O)C(CO)NC(=O)[C@H](C(C)C)NC(=O)[C@H](CC(C)C)NC(=O)[C@H](CCN)NC(=O)[C@H]2CCCN2C(=O)[C@H](CCN)NC(=O)[C@H](C(C)C)NC(=O)[C@H](Cc2ccc(-c3ccccc3)cc2)NC1=O (stereo partly shown) [Example 1415] ({CH2CO}-FYDWL[Bip]V[Dab][dP][Dab]LV[ξS]CA-NH2; thioether N-14)
4,70 nM,CC(C)C[C@@H]1NC(=O)[C@H](Cc2c[nH]c3ccccc23)NC(=O)[C@H](CC(=O)O)NC(=O)[C@H](Cc2ccc(O)cc2)NC(=O)[C@H](Cc2ccccc2)NC(=O)CSC[C@@H](C(=O)NCC(N)=O)NC(=O)[C@H](CO)NC(=O)[C@H](C(C)C)NC(=O)[C@H](CC(C)C)NC(=O)[C@H](CCN)NC(=O)[C@H]2CCCN2C(=O)[C@H](CCN)NC(=O)[C@H](C(C)C)NC(=O)[C@H](Cc2ccc(-c3ccccc3)cc2)NC1=O [Example 1417] ({CH2CO}-FYDWL[Bip]V[Dab][dP][Dab]LVSCG-NH2; thioether N-14)
5,120 nM,CC(C)C[C@@H]1NC(=O)[C@H](Cc2c[nH]c3ccccc23)NC(=O)[C@H](CC(=O)O)NC(=O)[C@H](Cc2ccc(O)cc2)NC(=O)[C@H](Cc2ccccc2)NC(=O)CSC[C@@H](C(=O)NCC(N)=O)NC(=O)C(CO)NC(=O)[C@H](C(C)C)NC(=O)[C@H](CC(C)C)NC(=O)[C@H](CC(N)=O)NC(=O)[C@H]2CCCN2C(=O)[C@H](CCCN)NC(=O)[C@H](C(C)C)NC(=O)[C@H](Cc2ccc(-c3ccccc3)cc2)NC1=O (stereo partly shown) [Example 1419] ({CH2CO}-FYDWL[Bip]V[Orn][dP]NLV[ξS]CG-NH2; thioether N-14)
6,130 nM,CC(C)C[C@@H]1NC(=O)[C@H](Cc2c[nH]c3ccccc23)NC(=O)[C@H](CC(=O)O)NC(=O)[C@H](Cc2ccc(O)cc2)NC(=O)[C@H](Cc2ccccc2)NC(=O)CSC[C@@H](C(=O)NCC(N)=O)NC(=O)[C@H]([C@@H](C)O)NC(=O)[C@H](C(C)C)NC(=O)[C@H](CC(C)C)NC(=O)[C@H](CCN)NC(=O)[C@H]2CCCN2C(=O)[C@H](CCCN)NC(=O)[C@H](C(C)C)NC(=O)[C@H](Cc2ccc(-c3ccccc3)cc2)NC1=O [Example 1420] ({CH2CO}-FYDWL[Bip]V[Orn][dP][Dab]LVTCG-NH2; thioether N-14)
7,60 nM,CC(C)C[C@@H]1NC(=O)[C@H](Cc2c[nH]c3ccccc23)NC(=O)[C@H](CC(=O)O)NC(=O)[C@H](Cc2ccc(O)cc2)NC(=O)[C@H](Cc2ccccc2)NC(=O)CSC[C@@H](C(=O)N[C@@H](C)C(N)=O)NC(=O)[C@H](CO)NC(=O)[C@H](C(C)C)NC(=O)[C@H](CC(C)C)NC(=O)[C@H](CCN)NC(=O)[C@H]2CCCN2C(=O)[C@H](CCCN)NC(=O)[C@H](C(C)C)NC(=O)[C@H](Cc2ccc(-c3ccccc3)cc2)NC1=O [Example 1421] ({CH2CO}-FYDWL[Bip]V[Orn][dP][Dab]LVSCA-NH2; thioether N-14)
8,140 nM,CC(C)C[C@@H]1NC(=O)[C@H](Cc2c[nH]c3ccccc23)NC(=O)[C@H](CC(=O)O)NC(=O)[C@H](Cc2ccc(O)cc2)NC(=O)[C@H](Cc2ccccc2)NC(=O)CSC[C@@H](C(=O)N[C@@H](C)C(N)=O)NC(=O)[C@H]([C@@H](C)O)NC(=O)[C@H](C(C)C)NC(=O)[C@H](CC(C)C)NC(=O)[C@H](CCN)NC(=O)[C@H]2CCCN2C(=O)[C@H](CCCN)NC(=O)[C@H](C(C)C)NC(=O)[C@H](Cc2ccc(-c3ccccc3)cc2)NC1=O [Example 1422] ({CH2CO}-FYDWL[Bip]V[Orn][dP][Dab]LVTCA-NH2; thioether N-14)
9,100 nM,CC(C)C[C@@H]1NC(=O)[C@H](Cc2c[nH]c3ccccc23)NC(=O)[C@H](CC(=O)O)NC(=O)[C@H](Cc2ccc(O)cc2)NC(=O)[C@H](Cc2ccccc2)NC(=O)CSC[C@@H](C(=O)NCC(N)=O)NC(=O)[C@H](CO)NC(=O)[C@H](C(C)C)NC(=O)[C@H](CC(C)C)NC(=O)[C@H](CCN)NC(=O)[C@H]2CCCN2C(=O)[C@H](CCCN)NC(=O)[C@H](C(C)C)NC(=O)[C@H](Cc2ccc(-c3ccccc3)cc2)NC1=O [Example 1423] ({CH2CO}-FYDWL[Bip]V[Orn][dP][Dab]LVSCG-NH2; thioether N-14)
